Reference: US20210228660A1, “USE OF PROTEASOME INHIBITOR AND […] PREPARATION OF ANTI-TUMOR MEDICAMENT” (GUANGZHOU VIROTECH PHARMACEUTICAL CO., LTD., priority 2018, published 2021)

Tests used:
Assay type in all cases: cell-based
[1] = tested on: human hepatocellular carcinoma Hep3B; experiment: Cell morphology observation under phase contrast microscope, Hep3B; details: 48 h, Bortezomib 5 nM, M1 virus 0.001 moi, FIG. 1
Method: (§1) a) Cell culture: human hepatocellular carcinoma Hep3B and Huh 7 were grown in DMEM complete medium containing 10% FBS, 100 U/ml penicillin and 0.1 mg/ml streptomycin; all cell strains were cultured and passaged in a closed incubator at a constant temperature of 37° C. (95% relative humidity) with 5% CO2, and the growth was observed under inverted microscope. The cells were passaged about every 2 to 3 days, and the cells in the logarithmic phase were used in the formal experiment.
(§2) b) Cell treatment and morphological observation: cells in the logarithmic growth phase and the DMEM complete culture medium (containing 10% fetal bovine serum and 1% double antibody) were selected to prepare cell suspension, and the cells were inoculated in a 24-well culture plate at a density of 2.5×10^4/well.

[2] = tested on: human hepatocellular carcinoma Huh 7; experiment: Cell morphology observation under phase contrast microscope, Huh 7; details: 48 h, Bortezomib 5 nM, M1 virus 0.1 moi, FIG. 1
Method: as §1, §2

[3] = tested on: human hepatocellular carcinoma Huh 7; experiment: MTT cell viability, Bortezomib and M1 virus, 48 h; details: Huh-7, 48 h, read-out: relative cell viability of tumor cells
Method: (§3) a) Inoculating cells, and drug administering treatment: cells in the logarithmic growth phase and the DMEM complete culture medium (containing 10% fetal bovine serum and 1% double antibody) were selected to prepare cell suspension, and were inoculated in a 96-well culture plate at a density of 4×10^3/well. 12 h later, the cells were completely adhered to the wall. The cells were divided into control group without medicament nor virus treatment, Bortezomib treatment group, M1 infection group and Bortezomib/M1 combined group.
b) MTT reacted with intracellular succinate dehydrogenase: after culturing for 48 h, 20 μl (5 mg/ml) of MTT was added to each well and incubated for 4 h, at this time, the granular bluish violet formazan crystals formed in living cells could be observed under microscope.
(§4) c) Dissolving formazan granules: the supernatant was carefully removed, DMSO 100 μl/well was added to dissolve the crystal, shaked in a microoscillator for 5 min, and then detect the optical density (OD value) of each well with wavelength of 570 nm on the enzyme-linked detector. The experiment was repeated for 3 times in each group. Cell viability=OD value of medicament treatment group/OD value of control group×100%.
The EC50 shift of the two curves was calculated, that is, the EC50 shift in FIG. 2, the larger the difference value was, the more significant the medicament synergized.

[4] = tested on: human hepatocellular carcinoma Huh 7; experiment: MTT cell viability, various proteasome inhibitors and M1 virus, 72 h
Method: as §3, with “proteasome inhibitor group (including CEP-18770, MLN-9708, ONX-0912),” for “Bortezomib treatment group,”, “infected” for “infection”, “proteasome inhibitor/M1” for “Bortezomib/M1”
b) MTT reacted with intracellular succinate dehydrogenase: after culturing for 72 h, 20 μl (5 mg/ml) of MTT was added to each well and incubated for 4 h, at this time, the granular bluish violet formazan crystals formed in living cells could be observed under microscope.
as §4, with “vibrate” for “shaked”, “detector.” for “detector. The experiment was repeated for 3 times in each group.”, “group x 100%.” for “group×100%.”

[5] = Homo sapiens, Huh-7, 72 h, read-out: relative cell viability of tumor cells

Compound: CC(C)C[C@H](NC(=O)[C@H](Cc1ccccc1)NC(=O)c1cnccn1)B(O)O [Bortezomib]
- morphological changes of cells [1]: no significant change in cell morphology
- morphological changes of cells [2]: no significant change in cell morphology
- viability at 0.005 µM [3]: 99.7%

Compound: CC(C)C[C@H](NC(=O)[C@@H](NC(=O)c1cccc(-c2ccccc2)n1)[C@@H](C)O)B(O)O [CEP-18770, Delanzomib]
- viability at 0.005 µM [4, 5]: 105%

Compound: COC[C@H](NC(=O)c1cnc(C)s1)C(=O)N[C@@H](COC)C(=O)N[C@@H](Cc1ccccc1)C(=O)[C@@]1(C)CO1 [ONX-0912, Oprozomib]
- viability at 0.05 µM [4, 5]: 70%

Compound: Ixazomib [MLN-9708]
- relative cell viability of tumor cells ([4]; FIG. 4B, Huh 7, MTT, 72 h, MLN-9708 5 nM, M1 virus MOI=0.1): 77.7%
